Data from patent publication US20220251039A1, “Diaryl-B-Lactam Compound and Preparation Method and Pharmaceutical Use Thereof” (Fudan University, priority 2016, published 2022).

Legend:
tubulin [1] = assay: Immunoblotting analysis of polymerized/depolymerized tubulin; assay type: cell-based, human; settings: Hela cells, 6 h
Procedure: After being treated with diluent (0.2% DMSO), tested compound, CA-4 or PTX for 6 h, Hela cells were lysed with microtubulestabilizing buffer, containing 100 mM PIPES, pH 6.8, 1 mM MgCl2, 2 mM EGTA, 0.5% NP-40, 2 M glycerol, 5 μM PTX and protease inhibitors cocktail (Roche), and the lysate was centrifuged at 15,000 rpm for 15 min. Supernatant containing depolymerized tubulin was carefully collected, whereas pellet (polymerized tubulin) was further dissolved in SDS-lysis buffer (Beyotime, China). Equal amounts of supernatant and dissolved pellet were subjected to immunoblotting analysis as described above using a tubulin antibody (Proteintech).

tubulin [2] = assay: Immunofluorescent analysis of tubulin morphology; assay type: cell-based, human; settings: SKOV-3 cells, 24 h
Procedure: After treatment with diluent (0.2% DMSO) or tested compounds at indicated concentrations for 24 h, SKOV-3 cells were fixed with methanol, permeabilized with 0.1% Triton X-100 in PBS and blocked by goat serum. Then the cells were incubated with a-tubulin antibody at 4° C. overnight, followed by incubation with Alexa 488 labeled secondary antibody (Jackson ImmunoResearch) at RT for 1 h. After being stained with DAPI, cells were examined and photographed with a Leica SP5 co-focal fluorescence microscope.

**Q.** `C=C1C(=O)N(c2cc(OC)c(OC)c(OC)c2)[C@H]1c1ccc(OC)c(O)c1` [Compound 1, (S)-4-(3-hydroxy-4-methoxyphenyl)-3-methylene-1-(3,4,5-trimethoxyphenyl)azetidin-2-one] was tested. Which “polymerized tubulin (immunoblotting)” value (tubulin [1]) did it give?
**A.** Its value is “significantly inhibit tubulin aggregation”.

**Q.** What about the “tubulin assembly (immunofluorescence)” value (tubulin [2]) of the same molecule?
**A.** The value was “significantly inhibit tubulin aggregation”.
